The record followed here is ChEMBL document CHEMBL1153152, “Amino acid based enantiomerically pure 3-substituted benzofused heterocycles: A new class of antithrombotic agents” (Bioorg Med Chem Lett, 2010).

Data set [1] deals with Mus musculus. As to the kind of experiment: Antithrombotic activity in mouse assessed as protection against collagen and adrenaline-induced hind limb paralysis at 30 mg/kg, po for 60 mins. Format: functional, Hindlimb.
Data set [2] concerns Mus musculus. The data set can be described thus: Toxicity in mouse assessed as increase in bleeding time at 30 mg/kg, po. Format: organism-based. As to conditions: in vivo. Also noted: dose 30 mg/kg, route oral.

On to `Cc1ccc(S(=O)(=O)N2Cc3ccccc3OC[C@@H]2CC(C)C)cc1`, for which the Activity in the data set with Mus musculus [1] is on record as 10%; in the data set on Mus musculus [2], 60%.

With `Cc1ccc(S(=O)(=O)N2Cc3ccccc3OC[C@@H]2Cc2ccc(O)cc2)cc1`, the Activity is recorded as 0% in the data set on Mus musculus [1] and “Non-toxic” in the data set with Mus musculus [2].

As to `Cc1ccc(S(=O)(=O)N2CCc3ccccc3OC[C@@H]2Cc2ccc(O)cc2)cc1`, the Activity is recorded as 40% in the data set on Mus musculus [1] and “Non-toxic” in the data set with Mus musculus [2].

With `Cc1ccc(S(=O)(=O)N2Cc3ccccc3SC[C@@H]2Cc2ccc(OCc3ccccc3)cc2)cc1`, the values for the Activity in the data set on Mus musculus [1] and with Mus musculus [2] were 10% and 28%, respectively.

In the case of `Cc1ccc(S(=O)(=O)N2C[C@H](Cc3ccc(OCc4ccccc4)cc3)N(S(=O)(=O)c3ccc(C)cc3)Cc3ccccc32)cc1`, the Activity worked out at 20% in the data set on Mus musculus [1] and 4% in the data set with Mus musculus [2].

Regarding `Cc1ccc(S(=O)(=O)N2CCc3ccccc3OC[C@@H]2C)cc1`, the Activity in the data set with Mus musculus [1] is listed as 40%; with Mus musculus [2] it was “Non-toxic”.

For the molecule `Cc1ccc(S(=O)(=O)N2Cc3ccccc3OC[C@@H]2Cc2c[nH]c3ccccc23)cc1`, the Activity in the data set with Mus musculus [1] was determined as 40%; with Mus musculus [2], 33%.

`Cc1ccc(S(=O)(=O)N2Cc3ccccc3OC[C@@H]2Cc2ccccc2)cc1`: the Activity in the data set on Mus musculus [1] is reported as 20%; in the data set on Mus musculus [2], “Non-toxic”.

As for `Cc1ccc(S(=O)(=O)N2Cc3ccccc3OC[C@@H]2C(C)C)cc1`, the figures for the Activity in the data set on Mus musculus [1] and in the data set with Mus musculus [2] were 20% and 22%, respectively.

With `Cc1ccc(S(=O)(=O)N2C[C@H](Cc3ccccc3)N(S(=O)(=O)c3ccc(C)cc3)Cc3ccccc32)cc1`, the figures for the Activity in the data set on Mus musculus [1] and in the data set with Mus musculus [2] were 20% and 13%, respectively.

Take `COc1cccc2c1OC[C@H](Cc1ccc(O)cc1)N(S(=O)(=O)c1ccc(C)cc1)C2`: the Activity with Mus musculus [1] stood at 45%; in the data set with Mus musculus [2], 24%.

Regarding `Cc1ccc(S(=O)(=O)N2C[C@H](Cc3ccc(OCc4ccccc4)cc3)N(S(=O)(=O)c3ccc(C)cc3)CCc3ccccc32)cc1`, the values for the Activity with Mus musculus [1] and in the data set on Mus musculus [2] were 30% and “Non-toxic”, respectively.

On to `COc1ccc2c(c1)CN(S(=O)(=O)c1ccc(C)cc1)[C@@H](Cc1c[nH]c3ccccc13)CO2`, for which the Activity in the data set on Mus musculus [1] was 20%; with Mus musculus [2], 12%.

Consider `Cc1ccc(S(=O)(=O)N2C[C@H](Cc3ccccc3)N(S(=O)(=O)c3ccc(C)cc3)CCc3ccccc32)cc1`, for which the Activity came out at 20% with Mus musculus [1] and 22% with Mus musculus [2].

For `CC(=O)Oc1ccccc1C(=O)O` [ASPIRIN], the Activity was determined as 37% with Mus musculus [1] and 100% with Mus musculus [2].

Turning to `COc1ccc2c(c1)CN(S(=O)(=O)c1ccc(C)cc1)[C@@H](CC(C)C)CO2`, the results for the Activity with Mus musculus [1] and with Mus musculus [2] were 30% and 6%, respectively.

With `Cc1ccc(S(=O)(=O)N2Cc3ccccc3OC[C@@H]2C)cc1`, the Activity in the data set with Mus musculus [1] is given as 20%; in the data set on Mus musculus [2] it was 25%.
